# Data as given in ChEMBL document CHEMBL5113512, “β-Nitrostyrene derivatives as broad range potential antifungal agents targeting fungal cell wall” (2022).
# The source made the active and inactive calls. The rule behind the calls is not given here.
# Tests used:
# Candida [1] = assay: Downregulation of CCW14 gene expression in Candida cells; assay type: functional, cell-based
# Candida albicans [2] = assay: Fungicidal activity against Candida albicans ATCC 24433 assessed as reduction in fungal growth by measuring reduction in colony count at sub-MIC concentration measured after 48 hrs by time kill assay; assay type: functional, organism-based
# Candida parapsilosis [3] = assay: Synergistic antifungal activity against Candida parapsilosis ATCC 90018 assessed as fractional inhibitory concentration index incubated for 48 hrs in presence of SDS by checker board assay; assay type: functional
# [Candida] auris [4] = Induction of ROS generation in Candida auris CBS10913 at sub-inhibitory concentration incubated for 1 hr by DCFDA staining-based flow cytometric analysis; assay type: functional, organism-based; conditions: Candidozyma auris
# Candida albicans [5] = assay: Antifungal activity against Candida albicans ATCC 24433 overexpressing transporter protein GU4 assessed as inhibition of fungal growth by broth microdilution method; assay type: functional
# Candida albicans [6] = assay: Synergistic antifungal activity against Candida albicans SN152 harboring CAS5 mutant assessed as fractional inhibitory concentration index incubated for 48 hrs in presence of Caspofungin by checker board assay; assay type: functional
# Candida albicans [7] = assay: Antifungal activity against Candida albicans ATCC 24433 overexpressing AD(1-8)u-assessed as inhibition of fungal growth by broth microdilution method; assay type: functional
# Candida albicans [8] = assay: Downregulation of CAS5 gene expression in Candida albicans ATCC 24433 by qRT-PCR analysis; assay type: functional
# Candida albicans [9] = assay: Antifungal activity against Candida albicans ATCC 24433 assessed as inhibition of fungal growth by broth microdilution method; assay type: functional
# Candida [10] = assay: Downregulation of CCT6 gene expression in Candida cells; assay type: functional, cell-based
# Candida [11] = assay: Upregulation of ARG1 gene expression in Candida cells; assay type: functional, cell-based
# Candida parapsilosis [12] = assay: Synergistic antifungal activity against Candida parapsilosis ATCC 90018 assessed as fractional inhibitory concentration index incubated for 48 hrs in presence of Congo red by checker board assay; assay type: functional
# Candida [13] = assay: Upregulation of ARG4 gene expression in Candida cells; assay type: functional, cell-based
# Candida albicans [14] = assay: Upregulation of CaPHO15 gene expression in Candida albicans ATCC 24433 assessed as increase in glycerol content at sub-inhibitory concentration incubated for 2 hrs; assay type: functional
# Candida [15] = assay: Downregulation of SSZ1 gene expression in Candida cells; assay type: functional, cell-based
# Candida albicans [16] = assay: Synergistic antifungal activity against wild type Candida albicans SN152 assessed as fractional inhibitory concentration index incubated for 48 hrs in presence of Amphotericin B by checker board assay; assay type: functional
# Candida albicans [17] = assay: Antifungal activity against Candida albicans ATCC 24433 overexpressing transporter protein F2 assessed as inhibition of fungal growth by broth microdilution method; assay type: functional
# Candida [18] = assay: Downregulation of RIO2 gene expression in Candida cells; assay type: functional, cell-based
# Candida albicans [19] = assay: Synergistic antifungal activity against Candida albicans SN152 harboring CAS5 mutant assessed as fractional inhibitory concentration index incubated for 48 hrs in presence of Amphotericin B by checker board assay; assay type: functional
# Cell membrane = assay: Disruption of membrane integrity in Candida albicans ATCC 24433 assessed as cell shrinkage and lysis by measuring leakage of intracellular material measured after 6 hrs by SEM analysis; assay type: subcellular
# Candida [20] = assay: Downregulation of BMT5 gene expression in Candida cells; assay type: functional, cell-based
# Candida parapsilosis [21] = assay: Synergistic antifungal activity against Candida parapsilosis ATCC 90018 assessed as SDS MIC incubated for 48 hrs by checker board assay; assay type: functional; conditions: Lodderomyces parapsilosis
# Candida albicans [22] = assay: Synergistic antifungal activity against wild type Candida albicans SN152 assessed as inhibition of fungal growth incubated for 48 hrs in presence of fluconazole by checker board assay; assay type: functional
# Candida [23] = assay: Upregulation of GAL4 gene expression in Candida cells; assay type: functional, cell-based
# Candida [24] = assay: Downregulation of RLM1 gene expression in Candida cells; assay type: functional, cell-based
# Candida parapsilosis [25] = assay: Synergistic antifungal activity against Candida parapsilosis ATCC 90018 assessed as fractional inhibitory concentration index incubated for 48 hrs in presence of Calcoflour White by checker board assay; assay type: functional
# Candida albicans [26] = assay: Induction of ROS generation in Candida albicans ATCC 24433 at sub-inhibitory concentration incubated for 1 hr by DCFDA staining-based flow cytometric analysis; assay type: functional, organism-based
# Candida [27] = assay: Upregulation of ARG6 gene expression in Candida cells; assay type: functional, cell-based
# Candida parapsilosis [28] = assay: Antifungal activity against Candida parapsilosis ATCC 90018 assessed as inhibition of fungal growth by broth microdilution method; assay type: functional; conditions: Lodderomyces parapsilosis
# Candida [29] = assay: Downregulation of STT4 gene expression in Candida cells; assay type: functional, cell-based
# Candida albicans [30] = assay: Upregulation of NAG4 gene expression in Candida albicans ATCC 24433 by qRT-PCR analysis; assay type: functional
# Candida [31] = assay: Downregulation of TCP1 gene expression in Candida cells; assay type: functional, cell-based
# Candida albicans [32] = assay: Antifungal activity against wild type Candida albicans SN152 assessed as inhibition of fungal growth by broth microdilution method; assay type: functional
# Candida [33] = assay: Downregulation of CDC15 gene expression in Candida cells; assay type: functional, cell-based
# Candida albicans [34] = assay: Antifungal activity against Candida albicans ATCC 24433 overexpressing ADCaMDR1-GFP assessed as inhibition of fungal growth by broth microdilution method; assay type: functional
# Candida albicans [35] = assay: Synergistic antifungal activity against Candida albicans ATCC 24433 assessed as inhibition of fungal growth incubated for 48 hrs in presence of Calcoflour White by checker board assay; assay type: functional
# [Candida] auris [36] = Synergistic antifungal activity against Candida auris CBS10913 assessed as SDS MIC incubated for 48 hrs by checker board assay; assay type: functional; conditions: Candidozyma auris
# Candida albicans [37] = assay: Synergistic antifungal activity against Candida albicans ATCC 24433 overexpressing ADCaMDR1-GFP assessed as fractional inhibitory concentration index incubated for 48 hrs in presence of caspofungin by checker board assay; assay type: functional
# [Candida] auris [38] = Antifungal activity against Candida auris 105 assessed as inhibition of fungal growth by broth microdilution method; assay type: functional; conditions: Candidozyma auris
# Candida albicans [39] = assay: Downregulation of ZCF19 gene expression in Candida albicans ATCC 24433 by qRT-PCR analysis; assay type: functional
# [Candida] auris [40] = Synergistic antifungal activity against Candida auris CBS10913 assessed as fractional inhibitory concentration index incubated for 48 hrs in presence of Calcoflour White by checker board assay; assay type: functional, Candidozyma auris
# Candida [41] = assay: Upregulation of LSC1 gene expression in Candida cells; assay type: functional, cell-based
# Candida [42] = assay: Downregulation of GIT3 gene expression in Candida cells; assay type: functional, cell-based
# Candida albicans [43] = assay: Synergistic antifungal activity against Candida albicans ATCC 24433 assessed as fractional inhibitory concentration index incubated for 48 hrs in presence of Congo red by checker board assay; assay type: functional
# Candida albicans [44] = assay: Antifungal activity against Candida albicans ATCC 24433 overexpressing transporter protein GU5 assessed as inhibition of fungal growth by broth microdilution method; assay type: functional
# Candida albicans [45] = assay: Synergistic antifungal activity against Candida albicans ATCC 24433 assessed as inhibition of fungal growth incubated for 48 hrs in presence of Congo red by checker board assay; assay type: functional
# Candida albicans [46] = assay: Synergistic antifungal activity against Candida albicans SN152 harboring CAS5 mutant assessed as fractional inhibitory concentration index incubated for 48 hrs in presence of fluconazole by checker board assay; assay type: functional
# [Candida] auris [47] = Antifungal activity against Candida auris 102 assessed as inhibition of fungal growth by broth microdilution method; assay type: functional; conditions: Candidozyma auris
# Candida albicans [48] = assay: Synergistic antifungal activity against wild type Candida albicans SN152 assessed as fluconazole MIC incubated for 48 hrs by checker board assay; assay type: functional
smiles,measurement,setting,value
O=[N+]([O-])/C=C/c1ccc(O)cc1,Activity,Candida [1],Active
same,Activity,Candida albicans [2],Active
same,fractional inhibitory concentration index (FICI),Candida parapsilosis [3],0.375
same,Activity,[Candida] auris [4],Active
same,MIC80,Candida albicans [5],4 µg/mL
same,fractional inhibitory concentration index (FICI),Candida albicans [6],0.5
same,MIC80,Candida albicans [7],4 µg/mL
same,Activity,Candida albicans [8],Active
same,MIC80,Candida albicans [9],4 µg/mL
same,Activity,Candida [10],Active
same,Activity,Candida [11],Active
same,fractional inhibitory concentration index (FICI),Candida parapsilosis [12],0.25
same,Activity,Candida [13],Active
same,Activity,Candida albicans [14],Active
same,Activity,Candida [15],Active
same,fractional inhibitory concentration index (FICI),Candida albicans [16],0.507
same,MIC80,Candida albicans [17],2 µg/mL
same,Activity,Candida [18],Active
same,fractional inhibitory concentration index (FICI),Candida albicans [19],0.515
same,Activity,Cell membrane,Active
same,Activity,Candida [20],Active
same,MIC,Candida parapsilosis [21],25 µg/mL
same,MIC,Candida albicans [22],3.9 ng/mL
same,Activity,Candida [23],Active
same,Activity,Candida [24],Active
same,fractional inhibitory concentration index (FICI),Candida parapsilosis [25],0.5
same,Activity,Candida albicans [26],Active
same,Activity,Candida [27],Active
same,MIC80,Candida parapsilosis [28],8 µg/mL
same,Activity,Candida [29],Active
same,Activity,Candida albicans [30],Active
same,Activity,Candida [31],Active
same,MIC80,Candida albicans [32],8 µg/mL
same,Activity,Candida [33],Active
same,MIC80,Candida albicans [34],4 µg/mL
same,MIC,Candida albicans [35],7.8 ng/mL
same,MIC,[Candida] auris [36],60 µg/mL
same,fractional inhibitory concentration index (FICI),Candida albicans [37],<0.5
same,MIC80,[Candida] auris [38],2 µg/mL
same,Activity,Candida albicans [39],Active
same,fractional inhibitory concentration index (FICI),[Candida] auris [40],0.625
same,Activity,Candida [41],Active
same,Activity,Candida [42],Active
same,fractional inhibitory concentration index (FICI),Candida albicans [43],0.375
same,MIC80,Candida albicans [44],4 µg/mL
same,MIC,Candida albicans [45],0.5 µg/mL
same,fractional inhibitory concentration index (FICI),Candida albicans [46],0.126
same,MIC80,[Candida] auris [47],4 µg/mL
same,MIC,Candida albicans [48],0.25 µg/mL
